US6376707B1, “Crystal polymorphism of aminoethylphenoxyacetic acid derivative” (Kissei Pharmaceutical Co., Ltd., priority 1999, dated 2002)
≈ marks a conversion by molar mass, not a printed value. Where two headings read alike, the source gives them in different places. One block for each compound: values may come before it.

Experiments:
β2-Adrenoceptor = biological target: T1, β2-Adrenoceptor (Rattus norvegicus, UniProt P10608); experiment: β2-Adrenoceptor stimulating effect: spontaneous contractions of isolated pregnant rat uterus (Magnus method); type: cell-based; settings: isolated uterus of pregnant SD rats (day 21), cumulative addition every 5 minutes, 37° C.; read-out: 50% inhibitory drug concentration (EC50 value), uterine contractions
T1 construct: The uteri of pregnant SD rats (pregnancy day of 21) were isolated; from tissue; host or cells: isolated uterus (longitudinal myometrial preparations) of pregnant SD rats, day 21
Description: The uteri of pregnant SD rats (pregnancy day of 21) were isolated, and longitudinal preparations of approximately 15 mm in length and approximately 5 mm in width free from the basal plate were prepared. The experiment was conducted according to the Magnus method. The preparations with a tension of 1 g were exposed to Locke-Ringer solution maintained at 37° C. and gassed with a mixture of 95% of oxygen and 5% of carbon dioxide. Spontaneous contractions of the myometrium were isometrically measured with a force-displacement transducer and recorded by a rectigram. 2-[4-[2-[[(1S, 2R)-2-Hydroxy-2-(4-hydroxyphenyl)-1-methylethyl]amino]ethyl]-phenoxy]acetic acid was cumulatively added to the Magnus bath every 5 minutes. The drug efficacy was evaluated by comparing the sum of uterine contractions during 5 minutes after the addition of the drug with that during 5 minutes before the addition of the drug which was expressed as 100%.

Solubility in water = type: physicochemical; settings: in water (37° C.)
Description: (§1) As examples of crystalline polymorphs other than the crystalline polymorph of the present invention, there are the crystalline polymorph (crystalline form γ) having strong diffraction peaks (diffraction angle: 2θ±0.1°) at 18.1, 19.7, 20.3, 21.2 and 22.4° and the crystalline polymorph (crystalline form […]) having strong diffraction peaks (diffraction angle: 2θ±0.1°) at 10.2, 13.2, 17.6, 19.8 and 20.6° in powder X-ray diffraction pattern. […] Thus, the crystalline polymorph of the present invention has an excellent low hygroscopicity and good storage. […] Thus, the crystalline polymorph of the present invention is favorable to oral administration and has a favorable efficiency in preparing liquid preparations such as injections.

[1] = Drug absorption on oral administration; type: in vivo; settings: orally administered
Description: as §1

[2] = Hygroscopicity (moisture absorption on standing under relative humidity); type: physicochemical
Description: as §1

T1 sequence (P10608 whole entry): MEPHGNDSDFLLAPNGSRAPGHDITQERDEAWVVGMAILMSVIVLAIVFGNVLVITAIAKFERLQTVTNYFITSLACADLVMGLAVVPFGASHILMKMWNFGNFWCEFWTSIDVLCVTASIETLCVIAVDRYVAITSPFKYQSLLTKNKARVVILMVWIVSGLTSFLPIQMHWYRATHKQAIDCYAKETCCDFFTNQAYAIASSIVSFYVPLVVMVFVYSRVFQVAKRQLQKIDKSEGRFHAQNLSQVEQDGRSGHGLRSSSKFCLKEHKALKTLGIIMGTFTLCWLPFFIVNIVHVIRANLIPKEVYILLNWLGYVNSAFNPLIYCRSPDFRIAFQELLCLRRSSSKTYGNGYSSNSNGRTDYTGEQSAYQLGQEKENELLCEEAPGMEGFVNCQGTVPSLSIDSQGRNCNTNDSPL

EC50 (β2-Adrenoceptor): 31 nM
Structure (SMILES): C[C@H](NCCc1ccc(OCC(=O)O)cc1)[C@H](O)c1ccc(O)cc1 [2-[4-[2-[[(1S,2R)-2-hydroxy-2-(4-hydroxy-phenyl)-1-methylethyl]amino]ethyl]phenoxy]acetic acid]

solubility (Solubility in water; read-out: solubility): 2700 µg/mL (≈ 7.82 mM)
drug absorption [1]: excellent drug absorption
moisture absorption (hygroscopicity) ([2]; allowed to stand for 10 days under relative humidities of 51-93%): does not absorb moisture
Structure (SMILES): CC(NCCc1ccc(OCC(=O)O)cc1)C(O)c1ccc(O)cc1 [crystalline form α, 2-[4-[2-[[(1S,2R)-2-Hydroxy-2-(4-hydroxyphenyl)-1-methyl-ethyl]amino]ethyl]phenoxy]acetic Acid (Crystalline Form α)]

Structure (SMILES): C[C@H](NCCc1ccc(OCC(=O)O)cc1)[C@H](O)c1ccc(O)cc1 [crystalline form γ, 2-[4-[2-[[(1S,2R)-2-Hydroxy-2-(4-hydroxyphenyl)-1-methyl-ethyl]amino]ethyl]phenoxy]acetic Acid (Crystalline Form γ)]
moisture absorption (hygroscopicity) ([2]; conditions not given): easily absorb moisture to convert into their hydrates

solubility (Solubility in water): 1800 µg/mL (≈ 5.21 mM)
Structure (SMILES): C[C@H](NCCc1ccc(OCC(=O)O)cc1)[C@H](O)c1ccc(O)cc1 [crystalline form δ, 2-[4-[2-[[(1S,2R)-2-Hydroxy-2-(4-hydroxyphenyl)-1-methyl-ethyl]amino]ethyl]phenoxy]acetic Acid (Crystalline Form δ)]
